Patent publication US12384789B2, “Compounds for treating Huntington's disease” (PTC Therapeutics, Inc., priority 2017, dated 2025)

system: Endogenous Huntingtin Protein; experiment: Endogenous Huntingtin Protein Assay (Meso Scale Discovery ELISA-based electrochemiluminescence); format: cell-based; settings: MSD electrochemiluminescence, Table 1
How it was run: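 MSD electrochemiluminescence sandwich ELISA: MW1 (expanded polyQ) or MAB2166 capture antibody at 1 μg/mL, samples incubated overnight at 4° C. Detection with rabbit monoclonal #5656S then SULFO-TAG anti-rabbit antibody, each 0.25 μg/mL for 1 h at room temperature.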

IC50 [nM] | SMILES
≤ 100 | Cc1cn2nc(-c3cc(F)c4nc(C5CCN(C)CC5)ccc4c3)cc(C)c2n1 [Compound 47, 6-(2,8-dimethylimidazo[1,2-b]pyridazin-6-yl)-8-fluoro-2-(1-methylpiperidin-4-yl)quinoline]
1000 to 3000 | Cn1cc2cc(-c3ccc4cc(N5CCNCC5)ccc4n3)ccc2n1 [Compound 7, 2-(2-methyl-2H-indazol-5-yl)-6-(piperazin-1-yl)quinoline]
≤ 100 | Cc1cn2nc(-c3cc(F)c4cc(C5CCNCC5)nnc4c3)cc(CC#N)c2n1 [Compound 187, {6-[5-fluoro-3-(piperidin-4-yl)cinnolin-7-yl]-2-methylimidazo[1,2-b]pyridazin-8-yl}acetonitrile]
1000 to 3000 | Cc1cc(-c2ccc3nc(C4CCNCC4)ncc3c2F)cc2cn(C)nc12 [Compound 38, 6-(2,7-dimethyl-2H-indazol-5-yl)-5-fluoro-2-(piperidin-4-yl)quinazoline]
≤ 100 | Cc1cn2nc(-c3cc(F)c4cc(C5C[C@@H](C)N(C)[C@H](C)C5)nnc4c3)cc(C)c2n1 (stereo partly drawn) [Compound 124, 7-(2,8-dimethylimidazo[1,2-b]pyridazin-6-yl)-5-fluoro-3-[(25,6S)-1,2,6-trimethylpiperidin-4-yl]cinnoline]
≤ 100 | CCN1[C@H](C)CC(c2cc3c(F)cc(-c4cc(C)c5nc(C)cn5n4)cc3nn2)C[C@H]1C (stereo partly drawn) [Compound 125, 7-(2,8-dimethylimidazo[1,2-b]pyridazin-6-yl)-3-[(2R,6R)-1-ethyl-2,6-dimethylpiperidin-4-yl]-5-fluorocinnoline]
≤ 100 | Cc1cc2oc(-c3cc(F)c4cc(C5CCNCC5)nnc4c3)nc2c(C)n1 [Compound 137, 7-(4,6-dimethyl[1,3]oxazolo[4,5-c]pyridin-2-yl)-5-fluoro-3-(piperidin-4-yl)cinnoline]
≤ 100 | Cc1cn2nc(-c3cc(F)c4cc(N5C[C@@H]6[C@H](C5)[C@H]6N(C)C)nnc4c3)cc(C)c2n1 [Compound 223, (1R,5S,6s)-3-[7-(2,8-dimethylimidazo[1,2-b]pyridazin-6-yl)-5-fluorocinnolin-3-yl]-N,N-dimethyl-3-azabicyclo[3.1.0]hexan-6-amine]
≤ 100 | CCN1CCCC(c2cc3c(F)cc(-c4cc(C)c5nc(C)cn5n4)cc3nn2)CC1 (stereo not shown) [Compound 189, 7-(2,8-dimethylimidazo[1,2-b]pyridazin-6-yl)-3-(1-ethylazepan-4-yl)-5-fluorocinnoline]
≤ 100 | CCN1CCC(c2cc(F)c3nc(-c4cc(F)c5nn(C)cc5c4)ncc3c2)CC1 [Compound 202, 6-(1-ethylpiperidin-4-yl)-8-fluoro-2-(7-fluoro-2-methyl-2H-indazol-5-yl)quinazoline]
≤ 100 | Cc1cn2nc(-c3cc(F)c4cc(N5CC6(CCNCC6)C5)nnc4c3)cc(C)c2n1 [Compound 221, 3-(2,7-diazaspiro[3.5]nonan-2-yl)-7-(2,8-dimethylimidazo[1,2-b]pyridazin-6-yl)-5-fluorocinnoline]
100 to 500 | Cc1nc2c(C)cc(-c3cc(F)c4cc(C5CCNCC5)nnc4c3)cc2s1 [Compound 118, 7-(2,4-dimethyl-1,3-benzothiazol-6-yl)-5-fluoro-3-(piperidin-4-yl)cinnoline]
≤ 100 | Cc1nc2c(C)cc(-c3cc(F)c4nc(C5CCNCC5)nnc4c3)cc2o1 [Compound 62, 7-(2,4-dimethyl-1,3-benzoxazol-6-yl)-5-fluoro-3-(piperidin-4-yl)-1,2,4-benzotriazine]
≤ 100 | Cc1cn2nc(-c3cc(F)c4cc(N5CC6(CCNC6)C5)nnc4c3)cc(C)c2n1 [Compound 217, 3-(2,6-diazaspiro[3.4]octan-2-yl)-7-(2,8-dimethylimidazo[1,2-b]pyridazin-6-yl)-5-fluorocinnoline]
500 to 1000 | CN1CCC(c2ccc3cc(-c4ccc5nn(C)cc5c4)ccc3n2)CC1 [Compound 6, 6-(2-methyl-2H-indazo1-5-yl)-2-(1-methylpiperidin-4-yl)quinoline]
≤ 100 | Cc1cn2nc(-c3ccc4nc(C5CCNCC5)ccc4c3)cc(C)c2n1 [Compound 19, 6-(2,8-dimethylimidazo[1,2-b]pyridazin-6-yl)-2-(piperidin-4-yl)quinoline]
